# According to patent publication US10682323B2, “Therapeutic agent for glaucoma” (TOA EIYO LTD., priority 2016, dated 2020):
# Tests used:
# [1] = Determination of Log D value (flask shaking method); type: physicochemical; conditions: pH 6.8; partition between n-octanol and second solution for the disintegration test (16th revised Japanese Pharmacopoeia), room temperature
# Description: More specifically, the Log D is more preferably 1.6 or more and 2.3 or less, still more preferably 1.8 or more and 2.2 or less, and particularly preferably 1.8 or more and 2.1 or less. Here, the Log D value in the present invention is a compound partition coefficient between n-octanol and a second solution of a disintegration test of the 16th revised Japanese Pharmacopoeia.
# The Log D value was determined using a flask shaking method, where a test compound partition coefficient between n-octanol and the second solution for the disintegration test defined in the 16th revised Japanese Pharmacopoeia was calculated. Specifically, in a microtube containing 2 mg of the test compound, n-octanol (0.25 mL) and the second solution for the disintegration test (0.25 mL) were mixed. The tube was shaken in a multi shaker at room temperature for 60 minutes, and allowed to stand until the two phases were completely separated. In the microtube, 10 μL of an n-octanol phase was diluted with 190 μL of 85% methanol and mixed, thereby obtaining an organic phase test solution. 100 μL of the second solution phase for the disintegration test was diluted with 100 μL of 50% methanol, and mixed, thereby obtaining an aqueous phase test solution. The organic phase test solution and the aqueous phase test solution were filtered, respectively, and the concentration of the test compound in these test solutions were measured, using high performance liquid chromatography. Then, from the measured concentration and dilution rate, the Log D was calculated.
# That is, the Log D of the present specification is represented by the following equation: Log D=Log10([concentration of test compound in organic phase test solution]/[concentration of test compound in aqueous phase test solution])+1 [Equation 1]
# The second solution for the disintegration test herein refers to, as defined in the 16th revised Japanese Pharmacopoeia, a liquid obtained by adding to 250 mL of a 0.2 mol/L potassium dihydrogenphosphate reagent, 118 mL of a 0.2 mol/L sodium hydroxide reagent, and water for adjusting to 1000 mL volume.
# [2] = target: T1, human sGC (Homo sapiens, UniProt Q02153); assay: Measurement of sGC activating effect in CHO-K1 cells stably expressing human sGC and mouse CNGA2; type: cell-based; conditions: CHO-K1 cells expressing human sGC and mouse CNGA2, Fura2 calcium readout, 10 μmol/L ODQ in assay buffer
# T1 construct: expressed in transfected cells; host or cells: CHO-K1 cells (Chinese hamster ovary), stably co-expressing mouse CNGA2 as the calcium read-out channel
# T1 sequence (Q02153 1-619): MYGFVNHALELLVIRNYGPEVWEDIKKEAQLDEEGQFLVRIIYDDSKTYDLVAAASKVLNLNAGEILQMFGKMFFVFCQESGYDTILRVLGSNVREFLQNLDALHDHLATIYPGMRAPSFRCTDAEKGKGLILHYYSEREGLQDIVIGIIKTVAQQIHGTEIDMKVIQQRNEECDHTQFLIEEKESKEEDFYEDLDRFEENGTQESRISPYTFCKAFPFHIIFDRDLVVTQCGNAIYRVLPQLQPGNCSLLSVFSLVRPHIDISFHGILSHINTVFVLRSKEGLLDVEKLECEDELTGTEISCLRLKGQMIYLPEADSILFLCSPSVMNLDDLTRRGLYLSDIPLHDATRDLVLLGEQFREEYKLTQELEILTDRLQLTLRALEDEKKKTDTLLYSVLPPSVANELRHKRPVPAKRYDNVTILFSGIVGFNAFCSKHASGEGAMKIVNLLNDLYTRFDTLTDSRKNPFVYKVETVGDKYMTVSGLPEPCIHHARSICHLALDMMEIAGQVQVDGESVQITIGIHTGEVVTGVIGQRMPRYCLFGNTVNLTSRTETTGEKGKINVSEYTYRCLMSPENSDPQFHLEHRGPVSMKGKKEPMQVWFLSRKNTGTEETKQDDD
# T1 sequence (Q02108 1-690 partner): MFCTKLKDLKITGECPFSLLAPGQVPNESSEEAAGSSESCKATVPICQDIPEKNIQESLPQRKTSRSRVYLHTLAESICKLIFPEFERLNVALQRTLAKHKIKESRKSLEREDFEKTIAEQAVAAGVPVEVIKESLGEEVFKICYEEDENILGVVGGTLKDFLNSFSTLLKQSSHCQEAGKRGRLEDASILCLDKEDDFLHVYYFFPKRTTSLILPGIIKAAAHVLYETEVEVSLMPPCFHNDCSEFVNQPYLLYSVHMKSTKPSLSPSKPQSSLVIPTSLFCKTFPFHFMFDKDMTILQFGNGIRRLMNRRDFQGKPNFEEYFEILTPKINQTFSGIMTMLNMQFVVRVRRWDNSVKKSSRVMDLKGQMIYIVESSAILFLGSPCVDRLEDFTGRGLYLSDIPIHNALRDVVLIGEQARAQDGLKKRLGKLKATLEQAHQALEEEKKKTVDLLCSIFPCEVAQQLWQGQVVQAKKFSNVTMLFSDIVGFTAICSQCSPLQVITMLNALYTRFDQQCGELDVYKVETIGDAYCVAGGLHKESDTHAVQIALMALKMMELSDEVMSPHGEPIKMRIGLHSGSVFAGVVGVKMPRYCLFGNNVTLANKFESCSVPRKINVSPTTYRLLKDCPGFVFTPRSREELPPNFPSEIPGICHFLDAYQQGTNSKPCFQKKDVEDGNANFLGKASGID
# Description: Chinese Hamster ovary cells (CHO-K1 cells) modified for stably expressing human sGC α subunit and β subunit, and a mouse cyclic nucleotide gated channel (CNGA2) were used in the test.
# The CHO-K1 cells stably expressing human sGC and mouse CNGA2 were cultured at 37° C. in a F-12 medium supplemented with 10% (v/v) fetal bovine serum (FBS), penicillin (100 U/mL), streptomycin (100 μg/mL), G418 (250 μg/mL), and Zeocin (250 μg/mL). The cells were suspended in a culture medium, seeded in a 96 well plate, and cultured at 37° C. for 24 hours. The cells were washed with an assay buffer 1 (140 mmol/L of sodium chloride, 5 mmol/L of potassium chloride, 0.5 mmol/L of magnesium chloride, 0.01 mmol/L of calcium chloride, 10 mmol/L of glucose, 0.4 mmol/L of magnesium sulfate, 10 mmol/L of 4-(2-hydroxyethyl)piperazine-1-yl ethanesulfonic acid, 125 μmol/L of sulfinpyrazone, pH 7.4), and then an indicator solution in which Fura2-AM as a fluorescent Ca2+ indicator is dissolved in assay buffer 1 at a concentration of 5 μmol/L was added thereto, and cultured at 37° C. for 60 minutes. The culture medium was removed, the cells were washed with assay buffer 1, the test compound solution was added thereto, and cultured at room temperature for 10 minutes. The plate was mounted on a fluorescence microplate reader (FlexStation II, available from Molecular Devices) with setting of excitation wavelengths of 340 and 380 nm and a detection wavelength of 510 nm, an intracellular calcium concentration was measured as a fluorescent intensity ratio obtained from each excitation wavelength.
# In this test, the solution of the test compound was prepared by dissolving each test compound in DMSO at a concentration of 10 mmol/L, and then diluting the solution with assay buffer 2 (140 mmol/L of sodium chloride, 5 mmol/L of potassium chloride, 0.5 mmol/L of magnesium chloride, 1 mmol/L of calcium chloride, 10 mmol/L of glucose, 0.4 mmol/L of magnesium sulfate, 10 mmol/L of 4-(2-hydroxyethyl)piperazine-1-yl ethanesulfonic acid, 125 μmol/L of sulfinpyrazone, 100 μmol/L of isobutylmethylxanthine, 10 μmol/L of 1H-[1,2,4]-oxadiazole [4,3-a]quinoxaline-1-on (hereinafter, referred to as ODQ), pH 7.4), in order to adjust the concentration of 10 μmol/L for testing. As a control solution, a DMSO diluted solution was used, instead of the test compound solution.
# The activity of the test compound was calculated as an increase rate (%) of the sGC activity in the test compound solution relative to the sGC activity in the control solution, by dividing a fluorescent intensity ratio in adding the test compound by a fluorescent intensity ratio of the control solution, and subtracting the sGC activity in the control solution (100%) therefrom. An EC50 value was calculated from the activity of the test compound at concentrations of 0.0001, 0.001, 0.003, 0.01, 0.03, 0.1, 1, and 10 μmol/L, using a 4 parameter losgistic model from Assay Explorer (available from Dssault Systèmes BIOVIA).
# [3] = as disclosed in Patent Literature 1 (WO 2015/095515 A); cited from earlier work
SMILES,logD [1],EC50 [2],intraocular pressure lowering action [3]
"O=C(O)CCCCN(CCc1ccccc1OCc1ccc2c(c1)CCCC2)C1CCCc2cc(C(=O)O)ccc21 (stereo not shown) [Compound No. 20, 5-[N-(4-carboxybutyl)-N-[2-[2-(1,2,3,4-tetrahydronaphthalene-6-ylmethoxy)phenyl]ethyl]amino]-5,6,7,8-tetrahydronaphthalene-2-carboxylic acid]",1.87,3.96 nM,–
"CC(C)(C)c1ccccc1COc1ccccc1CCN(CCCCC(=O)O)C1CCCc2cc(C(=O)O)ccc21 (stereo not shown) [Compound No. 15, 5-[N-[2-[2-(2-tert-butylbenzyloxy)phenyl]ethyl]-N-(4-carboxybutyl)amino]-5,6,7,8-tetrahydronaphthalene-2-carboxylic acid]",1.95,13.4 nM,–
"O=C(O)CCCCN(CCc1ccccc1OCc1cc2c(s1)CCCC2)C1CCCc2cc(C(=O)O)ccc21 (stereo not shown) [Compound No. 19, 5-[N-(4-carboxybutyl)-N-[2-[2-(4,5,6,7-tetrahydrobenzo[b]thiophene-2-ylmethoxy)phenyl]ethyl]amino]-5,6,7,8-tetrahydronaphthalene-2-carboxylic acid]",1.74,33.5 nM,–
"O=C(O)CCCCN(CCc1ccccc1OC[C@H]1CCc2ccccc2C1)C1CCCc2cc(C(=O)O)ccc21 (stereo partly drawn) [Compound No. 17, 5-[N-(4-carboxybutyl)-N-[2-[2-((2S)-1,2,3,4-tetrahydronaphthalene-2-ylmethoxy)phenyl]ethyl]amino]-5,6,7,8-tetrahydronaphthalene-2-carboxylic acid]",2,11 nM,–
"O=C(O)CCCCN(Cc1ccc(C(=O)O)cc1)CC(OCc1ccc(CCc2ccccc2)cc1)c1cccs1 (stereo not shown) [Compound No. 7, ([N-(4-carboxybutyl)-N-[2-[4-(2-phenylethyl)benzyloxy]-2-(2-thienyl)ethyl]amino]methyl)benzoic acid]",2.11,3.92 nM,–
"O=C(O)CCCCN(CCc1ccccc1OCc1ccc(OCc2ccccc2)cc1)C1CCCc2cc(C(=O)O)ccc21 (stereo not shown) [Compound No. 26, 5-[N-[2-[2-(4-benzyloxybenzyloxy)phenyl]ethyl]amino-N-(4-carboxybutyl)]-5,6,7,8-tetrahydronaphthalene-2-carboxylic acid]",2.24,15.6 nM,–
"O=C(O)CCCCN(Cc1ccc(C(=O)O)cc1)C[C@H](OCc1ccc(Oc2ccccc2)cc1)c1cccc(Cl)c1 [Compound No. 23, (−)-4-([N-(4-carboxybutyl)-N-[(2R)-2-(3-chlorophenyl)-2-[4-(phenyloxy)benzyloxy]ethyl]amino]methyl)benzoic acid]",2.35,2.47 nM,–
O=C(O)CCCCN(CCc1ccccc1OCc1ccc(CCc2ccccc2)cc1)Cc1ccc(C(=O)O)cc1 [Cinaciguat],–,–,low intraocular pressure lowering action
O=C(O)CCCCN(CCc1ccccc1OCc1ccc(CCc2ccccc2)cc1)[C@H]1CCc2cc(C(=O)O)ccc21 [Compound No. 12],1.95,11.9 nM,–
"CC(C)(C)c1cccc(CO[C@@H](CN(CCCCC(=O)O)Cc2ccc(C(=O)O)cc2)c2cccc(Cl)c2)c1 [Compound No. 2, (−)-4-([N-[2-(3-tert-butylbenzyloxy)-(2R)-2-(3-chlorophenyl)ethyl]-N-(4-carboxybutyl)amino]methyl)benzoic acid]",2.14,1.54 nM,–
